Data set [1] is described as follows: The drug is tested on Z-028 corresponding to mouse gut metagenome with ENA study accession number: PRJEB37062 and ENA sample accession number: ERS12561827 for biotransformation under anaerobic condition. The drug concentrations were measured over 9 timepoints collected between 0 and 24 hours of incubation by liquid-chromatography-coupled mass spectrometry (LC–MS). The following applies: 2 µM.

The nature of data set [2]: The drug is tested on Z-026 corresponding to metagenome with ENA study accession number: PRJEB37062 and ENA sample accession number: ERS12561825 for biotransformation under anaerobic condition. The drug concentrations were measured over 9 timepoints collected between 0 and 24 hours of incubation by liquid-chromatography-coupled mass spectrometry (LC–MS). The note with it: 2 µM.

Data set [3] is described as follows: The drug is tested on Z-017 corresponding to mouse gut metagenome with ENA study accession number: PRJEB37062 and ENA sample accession number: ERS12561816 for biotransformation under anaerobic condition. The drug concentrations were measured over 9 timepoints collected between 0 and 24 hours of incubation by liquid-chromatography-coupled mass spectrometry (LC–MS). The note with it: 2 µM.

A short description of data set [4]: The drug is tested on Z-012 corresponding to metagenome with ENA study accession number: PRJEB37062 and ENA sample accession number: ERS12561812 for biotransformation under anaerobic condition. The drug concentrations were measured over 9 timepoints collected between 0 and 24 hours of incubation by liquid-chromatography-coupled mass spectrometry (LC–MS). The following applies: 2 µM.

Data set [5] in a line: The drug is tested on Z-006 corresponding to mouse gut metagenome with ENA study accession number: PRJEB37062 and ENA sample accession number: ERS12561806 for biotransformation under anaerobic condition. The drug concentrations were measured over 9 timepoints collected between 0 and 24 hours of incubation by liquid-chromatography-coupled mass spectrometry (LC–MS). The following applies: 2 µM.

A short description of data set [6]: The drug is tested on Z-003 corresponding to pig gut metagenome with ENA study accession number: PRJEB37062 and ENA sample accession number: ERS12561803 for biotransformation under anaerobic condition. The drug concentrations were measured over 9 timepoints collected between 0 and 24 hours of incubation by liquid-chromatography-coupled mass spectrometry (LC–MS). The note with it: 2 µM.

The nature of data set [7]: The drug is tested on WLS-310 corresponding to human gut metagenome with ENA study accession number: PRJEB37062 and ENA sample accession number: ERS12561785 for biotransformation under anaerobic condition. The drug concentrations were measured over 9 timepoints collected between 0 and 24 hours of incubation by liquid-chromatography-coupled mass spectrometry (LC–MS). The following applies: 2 µM.

Data set [8] in a line: The drug is tested on WLS-240 corresponding to human gut metagenome with ENA study accession number: PRJEB37062 and ENA sample accession number: ERS12561773 for biotransformation under anaerobic condition. The drug concentrations were measured over 9 timepoints collected between 0 and 24 hours of incubation by liquid-chromatography-coupled mass spectrometry (LC–MS). The note with it: 2 µM.

For data set [9] the following is noted: human gut metagenome, 24 h, 2 µM.
For data set [10] the following is noted: human gut metagenome, 24 h, 2 µM. The source holds these as a separate data set.
The conditions of data set [11]: human gut metagenome, 24 h, 2 µM. This is another data set of the same source.
The conditions of data set [12]: human gut metagenome, 24 h, 2 µM. The source holds these as a separate data set.
For data set [13] the following is noted: human gut metagenome, 24 h, 2 µM. The source holds these as a separate data set.
The conditions of data set [14]: human gut metagenome, 24 h, 2 µM. This is another data set of the same source.
The conditions of data set [15]: human gut metagenome, 24 h, 2 µM. The source holds these as a separate data set.
The conditions of data set [16]: human gut metagenome, 24 h, 2 µM. This is another data set of the same source.
For data set [17] the following is noted: human gut metagenome, 24 h, 2 µM. This is another data set of the same source.
The conditions of data set [18]: human gut metagenome, 24 h, 2 µM. The source holds these as a separate data set.
For data set [19] the following is noted: human gut metagenome, 24 h, 2 µM. The source holds these as a separate data set.
The conditions of data set [20]: human gut metagenome, 24 h, 2 µM. The source holds these as a separate data set.

The structures appear in SMILES notation.
Further: call rule not given here.

As to `O=c1[nH]c2ccccc2n1C1CCN(CCCC(c2ccc(F)cc2)c2ccc(F)cc2)CC1` [PIMOZIDE], the “Bacterial Biotransformation” value in data set [1] is on record as “Compound NOT metabolized”; in data set [2], “Compound NOT metabolized”; in data set [3], “Compound metabolized”; in [4], “Compound metabolized”; in data set [5], “Compound metabolized”; in data set [6] it was “Compound metabolized”. Further, the “Bacterial Biotransformation” value is recorded as “Compound metabolized” in data set [7]; “Compound metabolized” in data set [8]; “Compound NOT metabolized” in data set [9]; “Compound metabolized” in [10]; “Compound metabolized” in data set [11]; “Compound metabolized” in [12]. Moreover, the “Bacterial Biotransformation” value was “Compound NOT metabolized” in data set [13]; “Compound metabolized” in [14]; “Compound NOT metabolized” in [15]; “Compound metabolized” in data set [16]; “Compound metabolized” in data set [17]; “Compound NOT metabolized” in data set [18]. The “Bacterial Biotransformation” value in [19] was “Compound NOT metabolized”; in [20], “Compound metabolized”.
As for `COc1cc2nc(N3CCN(C(=O)c4ccco4)CC3)nc(N)c2cc1OC` [PRAZOSIN], the “Bacterial Biotransformation” value in data set [1], in data set [2], in [3], in data set [4], in [5] and in [6] was “Compound NOT metabolized” throughout. In addition, the “Bacterial Biotransformation” value in data set [7] is on record as “Compound metabolized”; in data set [8], “Compound metabolized”; in data set [9], “Compound NOT metabolized”; in data set [10], “Compound NOT metabolized”; in data set [11], “Compound NOT metabolized”; in data set [12], “Compound metabolized”. The “Bacterial Biotransformation” value is “Compound NOT metabolized” in data set [13]; “Compound metabolized” in [14]; “Compound NOT metabolized” in [15]; “Compound metabolized” in [16]; “Compound metabolized” in [17]; “Compound NOT metabolized” in data set [18]. The “Bacterial Biotransformation” value is recorded as “Compound NOT metabolized” in data set [19] and “Compound metabolized” in data set [20].
As to `CS(=O)(=O)O.OC(CCN1CCCCC1)(c1ccccc1)c1ccccc1` [PRIDINOL METHANESULFONATE], the “Bacterial Biotransformation” value in data set [1] was “Compound NOT metabolized”; in data set [2] it was “Compound NOT metabolized”; in data set [3], “Compound NOT metabolized”; in [4] it was “Compound NOT metabolized”; in data set [5], “Compound NOT metabolized”; in [6], “Compound metabolized”. Further, the “Bacterial Biotransformation” value is on record as “Compound metabolized” in data set [7]; “Compound metabolized” in data set [8]; “Compound NOT metabolized” in data set [9]; “Compound NOT metabolized” in data set [10]; “Compound metabolized” in data set [11]; “Compound metabolized” in [12]. In addition, the “Bacterial Biotransformation” value is listed as “Compound NOT metabolized” in data set [13]; “Compound metabolized” in [14]; “Compound metabolized” in data set [15]; “Compound NOT metabolized” in data set [16]; “Compound metabolized” in data set [17]; “Compound NOT metabolized” in data set [18]. Besides, the “Bacterial Biotransformation” value in data set [19] was “Compound NOT metabolized”; in data set [20] it was “Compound metabolized”.
Take `CC(CN1c2ccccc2Sc2ccccc21)N(C)C` (stereo not given) [PROMETHAZINE]: the “Bacterial Biotransformation” value in data set [1], in [2], in data set [3], in [4], in data set [5] and in [6] was “Compound NOT metabolized” throughout. Moreover, the “Bacterial Biotransformation” value in [7] is given as “Compound metabolized”; in data set [8], “Compound metabolized”; in data set [9], “Compound NOT metabolized”; in data set [10], “Compound metabolized”; in data set [11] it was “Compound metabolized”; in data set [12], “Compound NOT metabolized”. Also, the “Bacterial Biotransformation” value in data set [13] is “Compound NOT metabolized”; in data set [14], “Compound metabolized”; in data set [15] it was “Compound NOT metabolized”; in data set [16], “Compound metabolized”; in [17], “Compound metabolized”; in data set [18], “Compound NOT metabolized”. In addition, the figures for the “Bacterial Biotransformation” value in data set [19] and in [20] were “Compound metabolized” and “Compound NOT metabolized”, respectively.
Regarding `OCCOCCN1CCN(C2=Nc3ccccc3Sc3ccccc32)CC1` [QUETIAPINE], the “Bacterial Biotransformation” value in data set [1], in [2], in data set [3], in data set [4], in data set [5] and in [6] was “Compound NOT metabolized” in each case. Besides, the “Bacterial Biotransformation” value is on record as “Compound NOT metabolized” in data set [7]; “Compound metabolized” in data set [8]; “Compound NOT metabolized” in [9]; “Compound NOT metabolized” in [10]; “Compound metabolized” in [11]; “Compound metabolized” in data set [12]. The “Bacterial Biotransformation” value in data set [13] was “Compound NOT metabolized”; in [14] it was “Compound metabolized”; in [15], “Compound metabolized”; in [16], “Compound metabolized”; in [17], “Compound metabolized”; in data set [18], “Compound NOT metabolized”. For the same compound, the entries for the “Bacterial Biotransformation” value in [19] and in [20] were “Compound NOT metabolized” and “Compound metabolized”, respectively.
Regarding `CCC(=O)NCC[C@@H]1CCc2ccc3c(c21)CCO3` [RAMELTEON], the “Bacterial Biotransformation” value in data set [1] is recorded as “Compound NOT metabolized”; in data set [2] it was “Compound NOT metabolized”; in [3], “Compound NOT metabolized”; in data set [4], “Compound metabolized”; in data set [5] it was “Compound metabolized”; in data set [6] it was “Compound metabolized”. The “Bacterial Biotransformation” value in data set [7], in data set [8], in data set [9], in [10], in [11] and in data set [12] was “Compound metabolized” each time. The “Bacterial Biotransformation” value in data set [13] was “Compound metabolized”; in data set [14], “Compound metabolized”; in [15], “Compound NOT metabolized”; in [16], “Compound NOT metabolized”; in [17] it was “Compound metabolized”; in data set [18], “Compound metabolized”. The “Bacterial Biotransformation” value in [19] and in [20] was “Compound metabolized” each time.

For the origin of these results see ChEMBL document CHEMBL5724914, “Linking interpersonal differences in gut microbiota composition and drug biotransformation activity” (2024).
